Reference: patent publication US7098233B2 (priority 2001, dated 2006)
Where two headings read alike, the source gives them in different places.

Tests used:
5-HT2b = 5-HT2b (Homo sapiens, UniProt P41595); experiment: Binding affinity for serotonin subtype 5-HT2b
[1] = target: T1, human 5-HT7 receptor stably transfected to CHO cells (Homo sapiens, UniProt P34969); experiment: 5-HT7 receptor binding, [3H]-LSD displacement
T1 construct: expressed in transfected cells; host or cells: CHO

5-HT2a = 5-HT2a (Homo sapiens, UniProt P28223); experiment: biochemical; type: binding
5-HT5a = 5-HT5a (Homo sapiens, UniProt P47898); experiment: Binding affinity for serotonin subtype 5-HT5a
D4,4 dopaminergic = target: T2, D4,4 dopaminergic (Homo sapiens, UniProt P21917); experiment: Receptor panel binding: D4,4 dopaminergic
T2 sequence (P21917 1-419): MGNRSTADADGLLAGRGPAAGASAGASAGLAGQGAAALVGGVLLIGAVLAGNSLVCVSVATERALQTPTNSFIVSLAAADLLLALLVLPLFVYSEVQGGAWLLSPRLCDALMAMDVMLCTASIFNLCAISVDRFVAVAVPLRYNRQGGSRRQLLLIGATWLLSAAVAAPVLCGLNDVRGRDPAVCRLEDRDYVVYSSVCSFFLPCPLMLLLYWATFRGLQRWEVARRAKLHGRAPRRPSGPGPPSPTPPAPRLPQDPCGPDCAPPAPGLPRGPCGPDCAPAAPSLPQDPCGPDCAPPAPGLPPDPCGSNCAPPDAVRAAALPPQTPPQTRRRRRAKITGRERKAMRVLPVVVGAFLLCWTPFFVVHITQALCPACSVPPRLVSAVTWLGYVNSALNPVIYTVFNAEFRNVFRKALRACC

V2 of vasopressin = V2 of vasopressin (Homo sapiens, UniProt P30518); experiment: Receptor panel binding: vasopressin V2
D5 dopaminergic = D5 dopaminergic (Homo sapiens, UniProt P21918); experiment: Receptor panel binding: D5 dopaminergic
5-HT4 = 5-HT4 (Homo sapiens, UniProt Q13639); experiment: Binding affinity for serotonin subtype 5-HT4
5-HT transporter = 5-HT transporter (Homo sapiens, UniProt P31645); experiment: Binding affinity for 5-HT transporter
vasopressin V1 = experiment: Receptor panel binding: vasopressin V1; settings: read-out: affinity (Ki), vasopressin V1
opiate (non-selective) = experiment: Receptor panel binding: opiate; settings: read-out: affinity value, opiate (non-selective)
5-HT1b = 5-HT1b (Homo sapiens, UniProt P28222); experiment: Binding affinity for serotonin subtype 5-HT1b
NA transporter = NA transporter (Homo sapiens, UniProt P23975); experiment: Receptor panel binding: NA transporter
5-HT1a = target: T3, 5-HT1a (Homo sapiens, UniProt P08908); experiment: Binding affinity for serotonin subtype 5-HT1a
T3 sequence (P08908 1-422): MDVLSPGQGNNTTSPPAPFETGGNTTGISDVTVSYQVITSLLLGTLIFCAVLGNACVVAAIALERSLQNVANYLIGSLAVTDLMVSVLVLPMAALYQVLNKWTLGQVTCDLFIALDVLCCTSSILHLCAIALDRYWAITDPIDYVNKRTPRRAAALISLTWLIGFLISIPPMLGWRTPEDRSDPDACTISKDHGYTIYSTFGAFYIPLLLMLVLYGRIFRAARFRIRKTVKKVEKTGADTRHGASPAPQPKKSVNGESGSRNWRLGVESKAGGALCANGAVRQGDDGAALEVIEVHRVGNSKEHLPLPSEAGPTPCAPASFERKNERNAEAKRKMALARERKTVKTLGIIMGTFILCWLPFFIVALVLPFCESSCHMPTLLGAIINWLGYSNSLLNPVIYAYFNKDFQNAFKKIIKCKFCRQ

5-HT1d = 5-HT1d (Homo sapiens, UniProt P28221); experiment: Binding affinity for serotonin subtype 5-HT1d
NMDA = experiment: Receptor panel binding: NMDA; settings: read-out: affinity value, NMDA
D2 dopaminergic = D2 dopaminergic (Homo sapiens, UniProt P14416); experiment: Receptor panel binding: D2 dopaminergic
5-HT2c = target: T4, 5-HT2c (Homo sapiens, UniProt P28335); experiment: Binding affinity for serotonin subtype 5-HT2c
T4 sequence (P28335 33-458): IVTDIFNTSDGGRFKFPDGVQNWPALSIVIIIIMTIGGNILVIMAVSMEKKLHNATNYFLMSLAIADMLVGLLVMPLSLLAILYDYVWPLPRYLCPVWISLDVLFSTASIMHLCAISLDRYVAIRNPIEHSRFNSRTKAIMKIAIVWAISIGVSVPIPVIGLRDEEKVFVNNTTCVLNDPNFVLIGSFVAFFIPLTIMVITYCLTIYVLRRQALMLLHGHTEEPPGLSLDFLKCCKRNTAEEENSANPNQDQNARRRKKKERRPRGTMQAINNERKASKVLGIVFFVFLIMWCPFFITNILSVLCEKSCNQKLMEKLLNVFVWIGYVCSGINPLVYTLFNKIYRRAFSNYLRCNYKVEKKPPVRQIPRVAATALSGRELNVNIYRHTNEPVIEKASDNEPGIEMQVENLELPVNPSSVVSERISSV

PCP = experiment: Receptor panel binding: PCP; settings: read-out: affinity (Ki), PCP
nicotinic receptors = experiment: Receptor panel binding: nicotinic receptors; settings: read-out: affinity (Ki), nicotinic receptors
DA transporter = DA transporter (Homo sapiens, UniProt Q01959); experiment: Receptor panel binding: DA transporter
D3 dopaminergic = D3 dopaminergic (Homo sapiens, UniProt P35462); experiment: Receptor panel binding: D3 dopaminergic
[2] = target: muscarinic (non-selective); experiment: Receptor panel binding: muscarinic; settings: read-out: affinity value, muscarinic (non-selective)
5-HT3 = target: T5, 5-HT3 (Homo sapiens, UniProt P46098); experiment: Binding affinity for serotonin subtype 5-HT3
T5 sequence (P46098 24-478): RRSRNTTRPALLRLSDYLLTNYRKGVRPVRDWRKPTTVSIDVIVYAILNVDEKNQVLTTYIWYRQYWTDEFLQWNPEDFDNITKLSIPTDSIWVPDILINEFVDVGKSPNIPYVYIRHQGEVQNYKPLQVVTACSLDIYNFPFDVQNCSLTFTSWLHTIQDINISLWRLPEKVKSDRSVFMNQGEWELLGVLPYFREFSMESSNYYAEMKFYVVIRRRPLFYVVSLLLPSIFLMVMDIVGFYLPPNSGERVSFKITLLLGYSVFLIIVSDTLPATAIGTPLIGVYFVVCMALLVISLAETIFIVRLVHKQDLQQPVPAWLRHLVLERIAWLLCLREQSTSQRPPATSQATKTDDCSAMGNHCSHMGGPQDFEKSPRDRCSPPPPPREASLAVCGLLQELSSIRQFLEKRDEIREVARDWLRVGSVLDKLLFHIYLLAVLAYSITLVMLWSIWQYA

H1 histaminergic = H1 histaminergic (Homo sapiens, UniProt P35367); experiment: Receptor panel binding: H1 histaminergic
[3] = target: T6, rat 5-HT6 stably transfected to HEK293 (Rattus norvegicus, UniProt P31388); experiment: 5-HT6 receptor binding, [3H]-LSD displacement; settings: for selectivity of binding for 5-HT6 receptor (in words): over other serotonin sites and other neurotransmitter receptors
T6 construct: expressed in transfected cells; host or cells: HEK293

D1 dopaminergic = D1 dopaminergic (Homo sapiens, UniProt P21728); experiment: Receptor panel binding: D1 dopaminergic
[4] = target: T7, alpha1b adrenergic receptor (Homo sapiens, UniProt P35368); experiment: Receptor panel binding: alpha1b adrenergic; settings: for interaction capability for alpha1b receptors lower than for 5-HT6 receptor: alpha1b versus 5-HT6
T7 sequence (P35368 1-520): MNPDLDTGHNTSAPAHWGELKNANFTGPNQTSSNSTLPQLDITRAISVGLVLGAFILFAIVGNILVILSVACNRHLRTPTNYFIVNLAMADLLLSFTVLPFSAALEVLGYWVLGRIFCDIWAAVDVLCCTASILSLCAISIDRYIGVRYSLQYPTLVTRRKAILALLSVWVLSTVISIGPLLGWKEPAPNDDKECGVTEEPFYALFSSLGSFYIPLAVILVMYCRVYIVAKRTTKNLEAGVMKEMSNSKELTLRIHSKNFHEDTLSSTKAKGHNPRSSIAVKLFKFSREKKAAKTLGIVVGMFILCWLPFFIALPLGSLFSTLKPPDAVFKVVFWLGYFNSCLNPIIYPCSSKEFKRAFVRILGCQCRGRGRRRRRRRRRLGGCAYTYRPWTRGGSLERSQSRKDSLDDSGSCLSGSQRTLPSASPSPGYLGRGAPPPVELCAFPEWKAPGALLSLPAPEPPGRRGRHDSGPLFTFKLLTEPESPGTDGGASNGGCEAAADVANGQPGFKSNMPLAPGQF

V1b of vasopressin = V1b of vasopressin (Homo sapiens, UniProt P47901); experiment: Receptor panel binding: vasopressin V1b
alpha1a adrenergic = alpha1a adrenergic (Homo sapiens, UniProt P35348); experiment: Receptor panel binding: alpha1a adrenergic
V1a of vasopressin = V1a of vasopressin (Homo sapiens, UniProt P37288); experiment: Receptor panel binding: vasopressin V1a
beta1 adrenergic = beta1 adrenergic (Homo sapiens, UniProt P08588); experiment: Receptor panel binding: beta1 adrenergic

Chain of D3 dopaminergic (P35462 whole entry): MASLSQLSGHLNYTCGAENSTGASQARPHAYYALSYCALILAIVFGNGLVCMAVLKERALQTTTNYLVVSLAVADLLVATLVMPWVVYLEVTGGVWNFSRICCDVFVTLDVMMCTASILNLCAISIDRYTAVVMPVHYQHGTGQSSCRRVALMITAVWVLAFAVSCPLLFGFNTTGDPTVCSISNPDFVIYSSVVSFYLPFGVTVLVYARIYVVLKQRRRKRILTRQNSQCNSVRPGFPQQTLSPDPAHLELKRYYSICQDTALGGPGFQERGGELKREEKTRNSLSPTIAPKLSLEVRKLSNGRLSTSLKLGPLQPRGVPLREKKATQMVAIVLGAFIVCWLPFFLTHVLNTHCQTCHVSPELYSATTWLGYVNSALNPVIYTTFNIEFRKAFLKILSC
Chain of D2 dopaminergic (P14416 whole entry): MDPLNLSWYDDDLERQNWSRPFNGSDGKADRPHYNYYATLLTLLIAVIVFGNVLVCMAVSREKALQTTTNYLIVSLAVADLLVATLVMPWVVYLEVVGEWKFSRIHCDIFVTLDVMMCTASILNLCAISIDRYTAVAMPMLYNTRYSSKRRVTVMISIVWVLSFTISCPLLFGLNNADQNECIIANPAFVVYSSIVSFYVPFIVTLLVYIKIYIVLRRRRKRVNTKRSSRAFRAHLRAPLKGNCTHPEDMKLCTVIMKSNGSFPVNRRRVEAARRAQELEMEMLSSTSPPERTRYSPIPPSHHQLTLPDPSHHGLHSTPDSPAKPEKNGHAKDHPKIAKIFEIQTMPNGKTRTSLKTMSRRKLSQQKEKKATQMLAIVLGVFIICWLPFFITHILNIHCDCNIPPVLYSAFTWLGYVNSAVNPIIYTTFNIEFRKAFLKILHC
Chain of 5-HT2b (P41595 whole entry, species assumed): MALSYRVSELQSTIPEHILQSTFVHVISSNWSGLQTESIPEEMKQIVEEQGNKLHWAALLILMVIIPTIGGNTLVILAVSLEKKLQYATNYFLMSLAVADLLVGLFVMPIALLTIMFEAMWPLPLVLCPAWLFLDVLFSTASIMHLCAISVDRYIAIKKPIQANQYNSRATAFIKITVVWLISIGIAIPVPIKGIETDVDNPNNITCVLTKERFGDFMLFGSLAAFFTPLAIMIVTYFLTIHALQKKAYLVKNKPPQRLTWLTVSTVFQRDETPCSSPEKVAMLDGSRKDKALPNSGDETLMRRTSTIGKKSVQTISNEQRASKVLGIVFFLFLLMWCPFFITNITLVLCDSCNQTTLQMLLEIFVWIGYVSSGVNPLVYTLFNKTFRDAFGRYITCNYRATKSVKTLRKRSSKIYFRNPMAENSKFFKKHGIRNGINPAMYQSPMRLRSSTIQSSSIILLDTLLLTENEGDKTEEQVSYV
Chain of 5-HT1b (P28222 whole entry, species assumed): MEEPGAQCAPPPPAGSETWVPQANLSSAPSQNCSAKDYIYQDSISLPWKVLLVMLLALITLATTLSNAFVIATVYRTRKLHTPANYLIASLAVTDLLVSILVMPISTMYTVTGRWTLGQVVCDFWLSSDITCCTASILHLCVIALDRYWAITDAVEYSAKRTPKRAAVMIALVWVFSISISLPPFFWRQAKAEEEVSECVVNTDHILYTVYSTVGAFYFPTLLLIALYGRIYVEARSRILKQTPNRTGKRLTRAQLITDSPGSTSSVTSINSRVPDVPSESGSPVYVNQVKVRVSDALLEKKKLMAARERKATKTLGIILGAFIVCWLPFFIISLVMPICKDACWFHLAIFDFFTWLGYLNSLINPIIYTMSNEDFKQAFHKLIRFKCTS
Chain of 5-HT transporter (P31645 whole entry): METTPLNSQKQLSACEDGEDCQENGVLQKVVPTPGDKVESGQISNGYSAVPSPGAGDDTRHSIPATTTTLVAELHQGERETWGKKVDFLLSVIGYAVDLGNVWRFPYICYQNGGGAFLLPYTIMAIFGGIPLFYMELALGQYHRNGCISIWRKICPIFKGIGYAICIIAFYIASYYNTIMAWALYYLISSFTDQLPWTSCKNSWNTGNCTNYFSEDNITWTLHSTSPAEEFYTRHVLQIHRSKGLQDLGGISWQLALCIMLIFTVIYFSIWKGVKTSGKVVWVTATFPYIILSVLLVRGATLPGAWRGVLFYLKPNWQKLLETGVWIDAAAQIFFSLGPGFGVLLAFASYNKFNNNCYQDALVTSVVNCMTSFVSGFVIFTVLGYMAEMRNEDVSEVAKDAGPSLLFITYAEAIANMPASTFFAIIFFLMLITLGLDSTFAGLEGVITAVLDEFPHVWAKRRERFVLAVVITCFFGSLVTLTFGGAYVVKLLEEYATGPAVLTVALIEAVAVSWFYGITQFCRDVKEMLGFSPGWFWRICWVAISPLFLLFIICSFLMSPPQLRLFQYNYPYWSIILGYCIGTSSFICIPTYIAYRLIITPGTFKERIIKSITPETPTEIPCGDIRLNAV
Chain of D1 dopaminergic (P21728 whole entry): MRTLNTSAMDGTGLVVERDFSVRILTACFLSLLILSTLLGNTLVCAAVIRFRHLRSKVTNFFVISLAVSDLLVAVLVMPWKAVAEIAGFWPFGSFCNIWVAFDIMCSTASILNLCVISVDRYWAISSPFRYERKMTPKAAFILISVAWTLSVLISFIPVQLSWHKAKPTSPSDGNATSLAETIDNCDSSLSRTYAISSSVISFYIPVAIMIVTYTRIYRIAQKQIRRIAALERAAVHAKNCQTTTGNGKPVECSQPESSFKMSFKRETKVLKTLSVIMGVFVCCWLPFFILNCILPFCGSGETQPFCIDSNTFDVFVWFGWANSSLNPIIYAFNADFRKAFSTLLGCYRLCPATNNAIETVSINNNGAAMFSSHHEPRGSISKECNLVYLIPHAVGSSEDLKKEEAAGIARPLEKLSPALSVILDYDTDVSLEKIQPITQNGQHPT
Chain of NA transporter (P23975 whole entry): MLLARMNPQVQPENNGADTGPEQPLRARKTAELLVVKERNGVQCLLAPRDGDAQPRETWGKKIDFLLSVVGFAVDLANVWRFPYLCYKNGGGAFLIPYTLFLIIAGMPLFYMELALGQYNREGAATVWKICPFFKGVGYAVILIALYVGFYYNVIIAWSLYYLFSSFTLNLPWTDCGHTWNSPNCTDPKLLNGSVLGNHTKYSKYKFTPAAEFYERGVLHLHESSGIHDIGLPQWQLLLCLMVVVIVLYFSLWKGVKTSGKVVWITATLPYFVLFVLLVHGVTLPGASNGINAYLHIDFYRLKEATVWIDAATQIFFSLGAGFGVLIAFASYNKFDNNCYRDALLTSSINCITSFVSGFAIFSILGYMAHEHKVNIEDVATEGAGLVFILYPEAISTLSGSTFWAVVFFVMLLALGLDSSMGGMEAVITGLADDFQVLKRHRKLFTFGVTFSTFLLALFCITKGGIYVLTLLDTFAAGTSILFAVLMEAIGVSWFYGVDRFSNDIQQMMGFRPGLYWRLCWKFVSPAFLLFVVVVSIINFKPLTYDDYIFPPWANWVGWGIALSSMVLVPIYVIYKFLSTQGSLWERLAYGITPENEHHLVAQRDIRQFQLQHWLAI
Chain of 5-HT1d (P28221 whole entry, species assumed): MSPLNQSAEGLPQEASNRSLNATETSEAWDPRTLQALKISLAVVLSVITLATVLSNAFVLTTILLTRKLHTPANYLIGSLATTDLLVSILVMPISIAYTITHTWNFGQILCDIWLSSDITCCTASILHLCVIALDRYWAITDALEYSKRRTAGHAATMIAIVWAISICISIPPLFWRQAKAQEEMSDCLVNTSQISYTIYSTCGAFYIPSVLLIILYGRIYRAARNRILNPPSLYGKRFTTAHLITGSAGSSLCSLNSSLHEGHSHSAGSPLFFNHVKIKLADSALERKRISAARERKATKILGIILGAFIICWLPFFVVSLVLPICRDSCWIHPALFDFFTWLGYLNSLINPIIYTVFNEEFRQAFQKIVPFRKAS
Chain of 5-HT4 (Q13639 whole entry, species assumed): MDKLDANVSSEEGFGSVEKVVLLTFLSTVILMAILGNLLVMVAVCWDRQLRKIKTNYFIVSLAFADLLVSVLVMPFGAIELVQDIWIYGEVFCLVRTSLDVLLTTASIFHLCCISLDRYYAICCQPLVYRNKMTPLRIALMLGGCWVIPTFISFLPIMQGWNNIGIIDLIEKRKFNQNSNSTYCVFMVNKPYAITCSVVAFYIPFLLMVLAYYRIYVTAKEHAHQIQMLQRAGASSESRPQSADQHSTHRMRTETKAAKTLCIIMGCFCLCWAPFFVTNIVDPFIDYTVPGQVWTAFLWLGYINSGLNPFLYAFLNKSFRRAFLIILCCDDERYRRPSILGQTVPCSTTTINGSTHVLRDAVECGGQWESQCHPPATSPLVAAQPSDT
Chain of V2 of vasopressin (P30518 whole entry): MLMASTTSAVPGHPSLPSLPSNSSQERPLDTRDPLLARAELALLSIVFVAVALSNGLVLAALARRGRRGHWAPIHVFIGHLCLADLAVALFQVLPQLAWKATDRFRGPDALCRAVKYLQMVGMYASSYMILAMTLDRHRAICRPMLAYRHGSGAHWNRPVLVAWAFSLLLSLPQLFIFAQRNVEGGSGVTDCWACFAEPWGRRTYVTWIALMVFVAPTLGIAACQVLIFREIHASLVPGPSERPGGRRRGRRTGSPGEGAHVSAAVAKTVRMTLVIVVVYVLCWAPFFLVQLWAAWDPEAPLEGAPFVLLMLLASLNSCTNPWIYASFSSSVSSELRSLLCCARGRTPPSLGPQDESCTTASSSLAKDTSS
Chain of 5-HT5a (P47898 whole entry, species assumed): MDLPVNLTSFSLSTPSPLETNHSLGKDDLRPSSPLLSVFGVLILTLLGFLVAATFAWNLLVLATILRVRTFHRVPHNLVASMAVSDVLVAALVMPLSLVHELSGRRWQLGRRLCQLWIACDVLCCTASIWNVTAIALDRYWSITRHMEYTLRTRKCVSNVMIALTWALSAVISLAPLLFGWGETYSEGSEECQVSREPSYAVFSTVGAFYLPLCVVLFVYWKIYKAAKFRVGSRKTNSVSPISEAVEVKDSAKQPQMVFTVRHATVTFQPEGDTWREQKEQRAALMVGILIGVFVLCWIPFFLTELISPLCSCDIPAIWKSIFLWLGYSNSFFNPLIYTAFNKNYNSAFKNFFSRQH

SMILES	Ki (5-HT2b) [nM]	IC50 [1] [nM]	Ki [1] [µM]	affinity for human recombinant 5-HT7 receptor (in words) [1]	Ki (5-HT5a) [nM]	Ki (D4,4 dopaminergic) [nM]	Ki (V2 of vasopressin) [nM]	Ki (D5 dopaminergic) [nM]	Ki (5-HT4) [nM]	Ki (5-HT transporter) [nM]	Ki (5-HT1b) [nM]	melting point	Ki (NA transporter) [nM]	Ki (5-HT1a) [nM]	Ki (5-HT1d) [nM]	Ki (D2 dopaminergic) [nM]	Ki (5-HT2c) [nM]	Ki (DA transporter) [nM]	IC50 [3] [nM]	Ki [3] [nM]	further results
Cc1[nH]c2ccc(Br)cc2c1CCN(C)C [ST 1938, 5-bromo-2-methyl-N,N-dimethyltryptamine]	154	158	0.047	highest affinity	> 1000	> 1000	> 1000	> 1000	> 1000	> 1000	> 1000	135 to 136 °C	> 1000	947	> 1000	> 1000	> 1000	> 1000	62	32	Ki (5-HT2a): > 1000 nM; Ki (vasopressin V1): > 1000 nM; Ki (opiate (non-selective)): > 1000 nM; Ki (NMDA): > 1000 nM; Ki (PCP): > 1000 nM; Ki (nicotinic receptors): > 1000 nM; Ki (D3 dopaminergic): > 1000 nM; Ki [2]: > 1000 nM; Ki (5-HT3): > 1000 nM; Ki (H1 histaminergic): > 1000 nM; 5-HT6 binding affinity compared with Serotonin (in words) [3]: greater than that observed for Serotonin; affinity for rat recombinant 5-HT6 receptor (in words) [3]: high affinity; selectivity of binding for 5-HT6 receptor (in words) [3]: mixed activity for 5-HT6 and 5-HT7 serotonin receptors; Ki (D1 dopaminergic): > 1000 nM
CCc1[nH]c2ccc(Cl)cc2c1CCN(C)C [ST 2253, 5-Chloro-2-ethyl-N,N-dimethyltryptamine]	84	> 1000	> 1	negligible	> 1000	≥ 1000	≥ 1000	≥ 1000	> 1000	> 1000	> 1000	188 °C (dec.)	≥ 1000	≥ 1000	> 1000	≥ 1000	> 1000	≥ 1000	52	26	Ki ([1]; read-out: Affinity (Ki) 5-HT7, Table 2, cell printed in μM): > 1 µM; Ki [4]: 69 nM; interaction capability for alpha1b receptors lower than for 5-HT6 receptor [4]: ~3 fold; Ki (5-HT2a): > 1000 nM; Ki (V1b of vasopressin): ≥ 1000 nM; Ki (alpha1a adrenergic): ≥ 1000 nM; Ki (V1a of vasopressin): ≥ 1000 nM; Ki (D3 dopaminergic): ≥ 1000 nM; Ki (5-HT3): > 1000 nM; Ki (beta1 adrenergic): ≥ 1000 nM; Ki (H1 histaminergic): ≥ 1000 nM; 5-HT6 binding affinity compared with Serotonin (in words) [3]: greater than that observed for Serotonin; affinity for rat recombinant 5-HT6 receptor (in words) [3]: high affinity; selectivity of binding for 5-HT6 receptor (in words) [3]: selective affinity for 5-HT6 receptor; Ki (D1 dopaminergic): ≥ 1000 nM
NCCc1c[nH]c2ccc(O)cc12 [Serotonin, reference compound]	–	–	–	–	–	–	–	–	–	–	–	–	–	–	–	–	–	–	171	87	–
Cc1[nH]c2ccc(Cl)cc2c1CCN(C)C [ST 1936, 5-chloro-2-methyl-N,N-dimethyltryptamine]	> 1000	527	0.168	moderate	> 1000	≥ 1000	≥ 1000	≥ 1000	> 1000	> 1000	> 1000	126 to 127 °C	≥ 1000	> 1000	> 1000	≥ 1000	> 1000	≥ 1000	62	31	Ki [4]: 53 nM; interaction capability for alpha1b receptors lower than for 5-HT6 receptor [4]: about 2 fold; Ki (V1b of vasopressin): ≥ 1000 nM; Ki (alpha1a adrenergic): ≥ 1000 nM; Ki (V1a of vasopressin): ≥ 1000 nM; Ki (D3 dopaminergic): ≥ 1000 nM; Ki (5-HT3): > 1000 nM; Ki (beta1 adrenergic): ≥ 1000 nM; Ki (H1 histaminergic): ≥ 1000 nM; 5-HT6 binding affinity compared with Serotonin (in words) [3]: greater than that observed for Serotonin; affinity for rat recombinant 5-HT6 receptor (in words) [3]: high affinity; Ki (D1 dopaminergic): ≥ 1000 nM
